Read-outs that look alike come from different tables or passages of the source.
Columns and labels:
ALCAT1 [1] = molecular target: T1, ALCAT1 (Homo sapiens (Human), UniProt Q6UWP7); assay: In vitro acyltransferase assay for ALCAT1 inhibitors; type: biochemical; conditions: for % inh @ 1 μM / inhibition at 1 µM: 1 μM compound; for IC50: ALCAT1 enzyme activity
How it was run: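 Membrane fractions from Sf9 cells expressing human ALCAT1 incubated 30 min at room temperature with 100 µM MLCL or LPG and 25 µM [14C]acyl-CoA (or 100 µM NBD-CoA) in 50 mM Tris/HCl pH 7.0.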
Target sequence in this assay (Q6UWP7 whole entry): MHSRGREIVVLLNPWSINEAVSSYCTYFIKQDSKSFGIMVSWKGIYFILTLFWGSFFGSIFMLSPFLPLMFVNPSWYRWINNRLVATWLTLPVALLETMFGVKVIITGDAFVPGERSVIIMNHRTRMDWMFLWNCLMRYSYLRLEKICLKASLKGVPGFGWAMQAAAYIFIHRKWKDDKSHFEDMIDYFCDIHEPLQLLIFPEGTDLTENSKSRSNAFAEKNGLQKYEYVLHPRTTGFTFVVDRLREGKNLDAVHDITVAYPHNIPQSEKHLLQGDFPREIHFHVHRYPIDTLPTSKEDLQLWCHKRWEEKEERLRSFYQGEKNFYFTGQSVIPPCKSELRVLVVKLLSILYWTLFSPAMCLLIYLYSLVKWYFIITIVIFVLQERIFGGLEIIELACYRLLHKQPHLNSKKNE

ALCAT1 [2] = molecular target: T1, ALCAT1; assay: Cell-based assay for ALCAT inhibitor compounds (H9C2 cells); conditions: H9c2, 3 μM compound; H9C2 vector cell line and H9C2 with stable overexpression of ALCAT1
Procedure: The assay was performed on the H9C2 vector cell line and H9C2 with stable overexpression of ALCAT1. Materials used in the protocol were CoA, LPG, compounds, chloroform, methanol, 0.9% KCl, 6-well-plates, 1.5 mL tubes, DMEM, FBS, P/S and PBS.
Cells were seeded in 6-well-plates, 8×10^5 cells/well, and cultured at 37° C. in 5% CO2 overnight.
Cells were washed once with ice-cold PBS, collected in ice-cold PBS and centrifuged at 5000 rpm for 5 min at 4° C. 200 μL of chloroform: methanol (2:1) was added to the cell pellet, which was vortexed to suspend the cells and incubated at RT for 1 hr.
40 μL of 0.9% KCl was added and the sample was vortexed before centrifugation at 10000 rpm for 5 min at RT. The aqueous phase (upper layer) was discarded and the organic phase (lower layer) was loaded to a TLC plate (10 cm×20 cm), 40 μL/sample.
The plates were developed in chloroform: methanol: water (65:25:4) for about 30 min and scanned using a Typhoon Scanner. The bands intensity was analysed using ImageJ and the inhibition activity of the tested compounds was calculated.
Compound inhibitors for ALCAT1 enzyme were analyzed by an in vitro cell-based assay as detailed above.
Target sequence in this assay (Q6UWP7 whole entry, species assumed): as the sequence (Q6UWP7 whole entry) above

[3] = read-out: IC50 values (upper bounds)
[4] = triplicates, GraphPad, read-out: IC50

Structure (SMILES)	% inh @ 1 μM (ALCAT1 [1]; in vitro enzymatic assay)	inhibition at 1 µM (ALCAT1 [1]; in vitro enzymatic assay)	IC50 (ALCAT1 [1]; [3])	IC50 (ALCAT1 [1]; [4])	inhibition at 3 µM (ALCAT1 [2])	inhibition at 10 µM (ALCAT1 [1]; 10 μM compound, in vitro enzymatic assay)
CCOc1ccc(Cl)cc1C(=O)Nc1cc(-c2nnc(-c3ccco3)o2)ccc1F [Compound 216, 5-chloro-2-ethoxy-N-(2-fluoro-5-(5-(furan-2-yl)-1,3,4-oxadiazol-2-yl)phenyl)benzamide]	100/100%	100%	< 100 nM	19 nM	45%	
COc1ccc(Br)cc1C(=O)Nc1cc(-c2nnc(-c3ccco3)o2)ccc1F [Compound 183, 5-Bromo-N-(2-fluoro-5-(5-(furan-2-yl)-1,3,4-oxadiazol-2-yl)phenyl)-2-methoxybenzamide]	100/100%	100%	< 100 nM	24 nM	62%	
CCOc1ccc(Br)cc1C(=O)Nc1cccc(-c2nnc(-c3ccco3)o2)c1 [Compound 118, 5-Bromo-2-ethoxy-N-(3-(5-(furan-2-yl)-1,3,4-oxadiazol-2-yl)phenyl)benzamide]		95%	< 100 nM	31 nM	9%	100%
O=C(Nc1cc(-c2nnc(-c3ccco3)o2)ccc1F)c1cc(F)ccc1OCC(F)(F)F [Compound 319, 5-Fluoro-N-(2-fluoro-5-(5-(furan-2-yl)-1,3,4-oxadiazol-2-yl)phenyl)-2-(2,2,2-trifluoroethoxy)benzamide]		96%		46 nM	12%	
CCOc1ccc(CC)cc1C(=O)Nc1cc(-c2nnc(-c3ccco3)o2)ccc1F [Compound 222, 2-Ethoxy-5-ethyl-N-(2-fluoro-5-(5-(furan-2-yl)-1,3,4-oxadiazol-2-yl)phenyl)benzamide]	97%	100%	< 35 nM	8 nM	85%	
O=C(Nc1cc(-c2nnc(-c3ccco3)o2)ccc1F)c1cc(Cl)ccc1OCCF [Compound 318, 5-Chloro-N-(2-fluoro-5-(5-(furan-2-yl)-1,3,4-oxadiazol-2-yl)phenyl)-2-(2-fluoroethoxy)benzamide]		98%	< 100 nM	24 nM	36%	
O=C(Nc1cc(-c2nnc(-c3ccco3)o2)ccc1F)c1cc(Cl)ccc1OC(F)(F)F [Compound 304, 5-Chloro-N-(2-fluoro-5-(5-(furan-2-yl)-1,3,4-oxadiazol-2-yl)phenyl)-2-(trifluoromethoxy)benzamide]	96%	98%	< 100 nM	20 nM	31%	
CCOc1ccc(CC)cc1C(=O)N(c1cc(-c2nnc(-c3ccco3)o2)ccc1F)P(=O)(O)O [Compound 497, (2-ethoxy-5-ethylbenzoyl) (2-fluoro-5-(5-(furan-2-yl)-1,3,4-oxadiazol-2-yl)phenyl)phosphoramidic acid]		90%		72 nM	75%	
O=C(Nc1cc(-c2nnc(-c3ccco3)o2)ccc1F)c1cc(F)ccc1OCCF [Compound 312, 5-Fluoro-N-(2-fluoro-5-(5-(furan-2-yl)-1,3,4-oxadiazol-2-yl)phenyl)-2-(2-fluoroethoxy)benzamide]		98%	< 100 nM	33 nM	4%	
O=C(Nc1cc(-c2nnc(-c3ccco3)o2)ccc1F)c1ccccc1OC(F)F [Compound 302, 2-(Difluoromethoxy)-N-(2-fluoro-5-(5-(furan-2-yl)-1,3,4-oxadiazol-2-yl)phenyl)benzamide]		97%		36 nM	20%	
COc1ccc(OC(F)(F)F)cc1C(=O)Nc1cc(-c2nnc(-c3ccco3)o2)ccn1 [Compound 400, N-(4-(5-(Furan-2-yl)-1,3,4-oxadiazol-2-yl)pyridin-2-yl)-2-methoxy-5-(trifluoromethoxy)benzamide]		96%		62 nM	50%	
COc1ccc(OC(F)(F)F)cc1C(=O)Nc1cccc(-c2nnc(-c3ccco3)o2)c1 [Compound 279, N-(3-(5-(Furan-2-yl)-1,3,4-oxadiazol-2-yl)phenyl)-2-methoxy-5-(trifluoromethoxy)benzamide]		97%		60 nM	7%	
O=C(Nc1cc(-c2nnc(-c3ccco3)o2)ccc1F)c1ccccc1OCC(F)(F)F [Compound 313, N-(2-Fluoro-5-(5-(furan-2-yl)-1,3,4-oxadiazol-2-yl)phenyl)-2-(2,2,2-trifluoroethoxy)benzamide]		94%		64 nM	19%	
Cc1ccc(OCC(F)F)c(C(=O)Nc2cc(-c3nnc(-c4ccco4)o3)ccc2F)c1 [Compound 323, 2-(2,2-Difluoroethoxy)-N-(2-fluoro-5-(5-(furan-2-yl)-1,3,4-oxadiazol-2-yl)phenyl)-5-methylbenzamide]		96%	< 100 nM	26 nM	14%	
CCCOc1ccc(C)cc1C(=O)Nc1cc(-c2nnc(-c3ccco3)o2)ccc1F [Compound 208, N-(2-Fluoro-5-(5-(furan-2-yl)-1,3,4-oxadiazol-2-yl)phenyl)-5-methyl-2-propoxybenzamide]	98%	97%		76 nM	36%	
CCOc1ccc(CC)cc1C(=O)Nc1cccc(-c2nnc(-c3ccco3)o2)c1 [Compound 219, 2-Ethoxy-5-ethyl-N-(3-(5-(furan-2-yl)-1,3,4-oxadiazol-2-yl)phenyl)benzamide]	98%	99%	< 100 nM	34 nM	22%	
O=C(Nc1cc(-c2nnc(-c3ccco3)o2)ccc1F)c1cc(Cl)ccc1OCF [Compound 306, 5-Chloro-N-(2-fluoro-5-(5-(furan-2-yl)-1,3,4-oxadiazol-2-yl)phenyl)-2-(fluoromethoxy)benzamide]		100%	< 100 nM	19 nM	30%	
CCOc1ccc(CC)cc1C(=O)Nc1cc(-c2nnc(-c3ccco3)o2)ccn1 [Compound 373, 2-Ethoxy-5-ethyl-N-(4-(5-(furan-2-yl)-1,3,4-oxadiazol-2-yl)pyridin-2-yl)benzamide]		98%		38 nM	3%	
COc1ccc(OC(F)(F)F)cc1C(=O)Nc1cc(-c2nnc(-c3ccco3)o2)ccc1F [Compound 405, N-(2-Fluoro-5-(5-(furan-2-yl)-1,3,4-oxadiazol-2-yl)phenyl)-2-methoxy-5-(trifluoromethoxy)benzamide]		98%	< 100 nM	19 nM	52%	
